Results taken from paper PMC6255700, “A novel glycosyltransferase catalyses the transfer of glucose to glucosylated anthocyanins in purple sweet potato” (Journal of Experimental Botany, 2018).

What was measured:
[1] = target: T1, Ib3GGT (IbA3G2GluT) (Ipomoea batatas, UniProt A1YM58); experiment: HPLC / LC-MS glycosyltransferase assay with crude recombinant yeast extract; assay type: cell-based; details: acceptor; donor 1 mM UDP-glucose; 100 mM phosphate pH 7.0, 37 °C, 2 h
T1 construct: gene GT

[2] = target: T2, At3GGT (UGT79B1, AtA3G2XylT) (Arabidopsis thaliana, UniProt Q9LVW3); experiment: as above; assay type: cell-based; details: acceptor; donor UDP-xylose; 100 mM phosphate pH 7.0, 37 °C, 2 h
T2 construct: gene A3G2XYLT; full length, C-terminal His6, pYES2 in Saccharomyces cerevisiae BY4742, crude yeast extract
T2 sequence (Q9LVW3 1-468): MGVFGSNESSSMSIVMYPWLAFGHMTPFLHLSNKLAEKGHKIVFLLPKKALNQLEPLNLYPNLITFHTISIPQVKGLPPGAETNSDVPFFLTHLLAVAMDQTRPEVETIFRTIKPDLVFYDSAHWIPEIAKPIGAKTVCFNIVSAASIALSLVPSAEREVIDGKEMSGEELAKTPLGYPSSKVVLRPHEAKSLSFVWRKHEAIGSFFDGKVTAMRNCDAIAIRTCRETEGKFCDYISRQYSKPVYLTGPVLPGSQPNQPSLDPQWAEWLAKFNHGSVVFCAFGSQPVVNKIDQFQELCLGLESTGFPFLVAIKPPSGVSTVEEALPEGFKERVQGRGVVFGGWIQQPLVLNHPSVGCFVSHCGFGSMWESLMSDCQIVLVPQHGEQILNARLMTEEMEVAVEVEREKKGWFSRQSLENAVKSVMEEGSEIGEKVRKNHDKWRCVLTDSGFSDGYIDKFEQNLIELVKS

T1 sequence (A1YM58 entry or part of it): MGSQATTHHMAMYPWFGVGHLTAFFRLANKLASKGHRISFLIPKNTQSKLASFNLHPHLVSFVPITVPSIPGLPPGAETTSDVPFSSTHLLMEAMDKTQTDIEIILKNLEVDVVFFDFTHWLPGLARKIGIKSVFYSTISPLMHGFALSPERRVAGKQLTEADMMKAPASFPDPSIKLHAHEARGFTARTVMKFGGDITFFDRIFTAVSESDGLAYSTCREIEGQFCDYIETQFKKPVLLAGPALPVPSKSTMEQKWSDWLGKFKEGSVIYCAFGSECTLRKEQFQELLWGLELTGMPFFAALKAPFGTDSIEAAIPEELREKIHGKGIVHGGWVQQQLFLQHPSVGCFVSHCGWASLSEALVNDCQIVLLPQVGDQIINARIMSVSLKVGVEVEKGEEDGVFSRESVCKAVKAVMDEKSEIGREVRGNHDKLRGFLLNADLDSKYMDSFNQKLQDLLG

## OC[C@H]1O[C@@H](Oc2cc3c(O)cc(O)cc3[o+]c2-c2ccc(O)c(O)c2)[C@H](O)[C@@H](O)[C@@H]1O [cyanidin 3-O-glucoside]
[1]
  HPLC / LC-MS glycosyltransferase assay with crude recombinant yeast extract: The recombinant Ib3GGT protein only catalysed the conversion of cyanidin 3-O-glucoside into cyanidin 3-O-sophoroside
[2]
  HPLC / LC-MS glycosyltransferase assay with crude recombinant yeast extract: using only UDP-xylose as the sugar donor to catalyse cyanidin 3-O-glucoside into cyanidin 3-O-glucoside-2″-O-xyloside
